Reference: US20160128952A1, “Pharmaceutical Combination” (Gruenenthal GmbH, priority 2006, published 2016)

Tested on: inflammatory pain
Test: Randall-Selitto test in rats (carrageenin-induced paw oedema, pressure pain)
Assay type: in vivo, rat
Description: The weight ratios of the components (a) and (b) that will lead to a supra-additive effect (synergistic effect) of the inventive pharmaceutical composition may be determined via the test of Randall and Selitto as described in Arch. Int. Pharmacodyn., 1957, 111: 409 to 419, which is a model for inflammatory pain. The respective part of the literature is hereby incorporated by reference and forms part of the present disclosure.
By means of injection of 0.1 ml of Carrageenin-suspension ventrally into a hind paw of a rat an oedema is induced, on which pain is generated 4 hours later by continuously increasing pressure with a stamp (2 mm tip diameter). The antinociceptive and antihyperalgesic activity of the tested substance is determined at different points in time after administration of the substance. The measured value to be determined and at the same time also the end point of the pain test is the pressure at which the vocalisation reaction of the rat occurs. The percentage maximum possible effect (%MPE) is calculated. The maximum pressure of the stamp is 250 g. The group size is n=10.
The interactions studies presented herein were performed using equieffective doses of the two components, calculated from the ratio of the respective ED50 values of the components if administered alone. […]

Structure (SMILES) | analgesic effect (in words) (Paracetamol alone, i.p.) | ED50 (Rattus norvegicus, iv, 0.25 h, i.v., 15 min p. appl. (peak effect), %MPE, vocalisation pressure, n=10, read-out: ED50 (confidence interval) of A applied alone) [mg/kg]
CC(=O)Nc1ccc(O)cc1 [Paracetamol] | dose-dependent analgesic effect | –
CC[C@@H](c1cccc(O)c1)[C@@H](C)CN(C)C [A, (1R,2R)-3-(3-Dimethylamino-1-ethyl-2-methyl-propyl)-phenol] | – | 1.88
